Reference: PubChem BioAssay AID179 (DTP/NCI, 2004)
Calls of active or inactive are those of the source.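 How the source made its calls: active means compounds giving half or more protection of infected cells from virus-caused growth loss, again on retest; inactive means the rest.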

System: CEM cells HIV-1 protection, formazan growth assay
Assay: NCI AIDS Antiviral Assay
Conditions: for IC50: measured here: growth of uninfected CEM cells
Protocol: The ability of compounds to protect human CEM cells from HIV-1 infection is measured as a screen for new compounds capable of inhibiting the HIV virus. Five concentrations of drug were tested on uninfected and infected cells and cell growth was measured using a soluble formazan assay. […] Compounds that provided at least 50% protection were retested. Compounds that provided at least 50% protection on retest were listed as moderately active. Compounds that reproducibly provided 100% protection were listed as confirmed active. […] Note that the inability to provide protection could be due to toxicity.

| Compound | EC50 | IC50 | outcome |
| --- | --- | --- | --- |
| CCOC(=O)NC(Nc1c(F)c(F)c(F)c(F)c1F)(C(F)(F)F)C(F)(F)F | > 200 µM | 141 µM | – |
| CCN(CC)CCC(=O)N1CCc2c([nH]c3ccccc23)C1c1cccnc1 (centres undefined) | > 95.5 µM | > 95.5 µM | – |
| Nc1ccccc1-c1nc2ccncc2[nH]1 | > 851 µM | 302 µM | – |
| Cc1ccc(C2(c3ccc(F)cc3)OC(=O)c3ccccc32)c(O)c1 (centres undefined) | – | – | inactive |
| COc1ccc2nc3ccccc3c(NCCCCCN(CCCl)CCCl)c2c1 | > 245 µM | 0.282 µM | – |
| C[N+](C)(C)C1C=CCC2=C1S(=O)(=O)C2 (centres undefined) | > 741 µM | 355 µM | – |
| O=C(O)CN(c1ccccc1Cl)S(=O)(=O)c1ccccc1 | – | – | inactive |
| COC(=O)c1cc(=O)n(Cc2ccco2)c(=Nc2ccccc2)s1 | > 100 µM | 13.8 µM | – |
| O=C(CN1CCN(c2ccccn2)CC1)N1CCCn2c1nc1ccccc1c2=O | > 200 µM | > 200 µM | – |
| CCOC(=O)Cc1cc(=O)[nH]c(-n2[nH]c(C)c(CCO)c2=O)n1 | > 200 µM | > 200 µM | – |
| O=Cc1c(O)c2ccccc2[nH]c1=O | > 5.5 µM | > 5.5 µM | – |
| CC(C)=CCC[C@]1(C)C=Cc2c(O)c3c(c(CC=C(C)C)c2O1)O[C@]12C(=C[C@@H]4CC1C(C)(C)O[C@@]2(C/C=C(/C)C(=O)O)C4=O)C3=O | > 0.2 µM | 0.0631 µM | – |
| O=S(=O)(Nc1nc2ccccc2nc1N1CCCCCC1)c1ccccc1 | > 200 µM | 33.9 µM | – |
| C/C(O)=C/c1nc2ccccc2[nH]1 | > 1450 µM | 1260 µM | – |
| N#CCCC(CC#N)N1CCN(C(CC#N)CCC#N)CC1 (centres undefined) | > 200 µM | > 200 µM | – |
| Cc1nn(-c2ccccc2)c2c1CC(=O)Nc1ccccc1-2 | > 2 µM | 0.112 µM | – |
| O=C(Nc1cc(S(=O)(=O)O)cc2cc(S(=O)(=O)O)c(N=Nc3cc(Nc4nc(Cl)nc(Nc5ccc(S(=O)(=O)O)cc5)n4)ccc3S(=O)(=O)O)c(O)c12)c1ccccc1 | – | – | inactive |
| COC1OC(CO)C2OC12 (centres undefined) | > 200 µM | > 200 µM | – |
| O=C(/C=C/c1c(O)ccc2ccccc12)c1cccc2ccccc12 | > 162 µM | 112 µM | – |
| N#Cc1cc([N+](=O)[O-])ccc1NC(=O)/C(=N\NC(=O)c1ccncc1)C(c1cnc2ccc([N+](=O)[O-])cc2n1)[N+](=O)[O-] (centres undefined) | > 45.7 µM | 8.71 µM | – |
| Cc1cc(O)c(/C=N/C(N)=S)c(=O)o1 | > 200 µM | > 200 µM | – |
| Cc1cccc(C(=O)O)c1C(=O)c1cccc2ccccc12 | – | – | inactive |

| Compound | EC50 | IC50 | outcome |
| --- | --- | --- | --- |
| CN1C(=O)/C(=C2\SC(=O)N(CN3CCCCC3)C2=O)c2cc(Br)ccc21 | > 200 µM | 91.2 µM | – |
| Cc1ccc(S(=O)(=O)N/N=C2\CCC3(O)CC2(C)CCC2C3CC2(C)C)cc1 (centres undefined) | 28.2 µM | 51.3 µM | – |
| COc1ccc(CCNC(=O)Cc2cc(OC)c(OC)cc2CO)cc1OC | > 200 µM | 195 µM | – |
| Cc1nc(C)c(C(=O)NNC(=O)Cc2ccccc2)cc1C(=O)NNC(=O)Cc1ccccc1 | > 200 µM | > 200 µM | – |
| COC(=O)c1nn2c(=O)[nH]c3ccccc3c2c1C(=O)OC | > 562 µM | 331 µM | – |
| CC1(C)C(CBr)=[N+]([O-])C(C)(C)N1O | > 200 µM | 3.72 µM | – |
| COc1cc(C(C)O)c[n+](CCC2CNc3ccccc32)c1 (centres undefined) | > 219 µM | 195 µM | – |
| COc1ccc(/C=C2\CSC/C(=C\c3ccc(OC)c(OC)c3OC)C2=O)c(OC)c1OC | > 200 µM | 15.5 µM | – |
| CC(=O)O[C@H]1CC2CCCC2C2C(=O)OC(=O)C21 (some centres undefined) | – | – | active |
| CC(C)(CCl)NC(=O)c1cccc(C(=O)NC(C)(C)CCl)n1 | > 28.8 µM | > 28.8 µM | – |
| CC(CC(=O)O)CC(=O)OC[C@]12CC[C@@H](C(C)C)[C@@H]1[C@H]1CC[C@@H]3[C@@]4(C)CC[C@H](OC(=O)CC(C)CC(=O)O)C(C)(C)[C@@H]4CC[C@@]3(C)[C@]1(C)CC2 (some centres undefined) | > 200 µM | 16.6 µM | – |
| O=[N+]([O-])C(=C(Cl)Cl)C(Cl)=C(Cl)Cl | > 200 µM | > 200 µM | – |
| Clc1ccc(/C=N/N=C(N/N=C/c2ccc(Cl)cc2Cl)N/N=C/c2ccc(Cl)cc2Cl)c(Cl)c1 | > 100 µM | > 100 µM | – |
| c1cncc(C2c3[nH]c4ccccc4c3CCN2CCN2CCCCC2)c1 (centres undefined) | > 3.98 µM | > 3.98 µM | – |
| O=[N+]([O-])c1ccc(N=Nc2c(O)c(N=Nc3cc([N+](=O)[O-])cc([N+](=O)[O-])c3O)cc(N=Nc3cc(S(=O)(=O)O)cc4cc(S(=O)(=O)O)cc(O)c34)c2O)cc1 | 16.6 µM | 50.1 µM | – |
| COC(=O)C1C=CCON2CCc3c(n(C)c4ccccc34)C12 (centres undefined) | > 22.9 µM | > 22.9 µM | – |
| CCOC(=O)CC1=CSC2=NCCN12 | – | – | inactive |
| Clc1ccc(N=c2ccc3ccccc3[oH+]2)cc1.Clc1ccc(N=c2ccc3ccccc3[oH+]2)cc1.[Ni] | – | – | inactive |
| OC[C@H]1C[C@@H]2Cc3ccccc3N2N1 | > 200 µM | > 200 µM | – |
| O=c1[nH]c2cc(Cl)ccc2c(O)c1Cc1c(O)c2ccc(Cl)cc2[nH]c1=O | > 100 µM | 5.37 µM | – |
| CSc1nc(C(N)=O)c(N)c(=O)[nH]1 | > 468 µM | 126 µM | – |
